In one experiment the target is T1, r-h TM11 URAT1 chimera (Rattus norvegicus, UniProt Q3ZAV1, M481I/V474M).
T1 sequence (Q3ZAV1 1-553 V474M/M481I): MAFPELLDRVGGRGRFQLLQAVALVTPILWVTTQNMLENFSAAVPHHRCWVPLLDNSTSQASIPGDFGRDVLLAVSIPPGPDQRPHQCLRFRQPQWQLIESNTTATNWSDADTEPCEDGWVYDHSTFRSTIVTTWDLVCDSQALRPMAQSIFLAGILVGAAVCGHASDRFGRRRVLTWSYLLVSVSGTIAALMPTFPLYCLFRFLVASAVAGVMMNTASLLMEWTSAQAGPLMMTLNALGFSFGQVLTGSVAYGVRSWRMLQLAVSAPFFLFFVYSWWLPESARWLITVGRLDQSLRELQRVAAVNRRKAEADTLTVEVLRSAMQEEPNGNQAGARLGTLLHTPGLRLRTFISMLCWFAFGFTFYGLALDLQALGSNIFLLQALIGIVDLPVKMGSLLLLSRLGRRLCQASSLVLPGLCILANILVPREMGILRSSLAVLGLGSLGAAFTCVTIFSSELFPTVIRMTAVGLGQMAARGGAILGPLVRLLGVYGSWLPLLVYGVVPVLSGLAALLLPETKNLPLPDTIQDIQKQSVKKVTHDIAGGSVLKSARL
Nature of the experiment: URAT1 uric acid transport activity assay. It counts as cell-based, human/rat. The text has this:
(§1) hURAT1 (GenBank BC053348.1) and rURAT1 (NCBI NM_001034943.1) genes were purchased from Origene Technologies, Inc. and subcloned into pCMV6/neo using NotI, creating pCMV6/neo-hURAT1 and pCMV6/neo-rURAT1. Mutants were produced by polymerase chain reaction (PCR) or site-directed mutagenesis using the QuikChange Lightning Multi Site-Directed Mutagenesis Kit (Agilent Technologies). […] Detailed methods are provided in Supplementary Methods, and primers are listed in Supplementary Table 1. […] Residues in rURAT1 and hOAT1 that correspond to the residues in hURAT1 were identified from aligned protein sequences (Supplementary Fig. 1)[50].
(§2) DNA (10 μg) was mixed with 30 μl of DreamFect Gold (Boca Scientific) in 2 ml OptiMem (Life Technologies). After 20 minutes, 18 ml of media containing 2 × 10^7 cells in suspension was added and mixed, and 200 μl per well were plated onto white clear-bottomed poly-D-lysine coated 96-well plates (BD Biosciences). The cells were assayed the following day.
(§3) Compounds were serially diluted into assay buffer and added to the cells for 5 minutes prior to addition of radiolabelled uric acid substrate. URAT1-expressing cells were incubated with 100 μM ^14C-uric acid for 10 minutes. […] Each treatment was measured in triplicate.
(§4) Unlabelled uric acid was prepared at a 20 mM stock just prior to use in a solution containing 20 mM dibasic potassium phosphate and 20 mM potassium hydroxide.
(§5) Nonlinear regression analyses using GraphPad Prism software were used to calculate the potency of URAT1 inhibitors (IC50 values) from log (inhibitor) versus response - variable slope (four parameters) equations. Statistical significance was assessed using Student’s unpaired t-tests.

The next experiment concerns the target T2, human URAT1 (Homo sapiens, UniProt Q96S37).
T2 construct: hURAT1 and rURAT1 are 553 amino acid proteins with 12 transmembrane segments; expressed in transfected cells; host or cells: URAT1-transfected cells (HEK-293T per the transfection section)
T2 sequence (Q96S37 1-553): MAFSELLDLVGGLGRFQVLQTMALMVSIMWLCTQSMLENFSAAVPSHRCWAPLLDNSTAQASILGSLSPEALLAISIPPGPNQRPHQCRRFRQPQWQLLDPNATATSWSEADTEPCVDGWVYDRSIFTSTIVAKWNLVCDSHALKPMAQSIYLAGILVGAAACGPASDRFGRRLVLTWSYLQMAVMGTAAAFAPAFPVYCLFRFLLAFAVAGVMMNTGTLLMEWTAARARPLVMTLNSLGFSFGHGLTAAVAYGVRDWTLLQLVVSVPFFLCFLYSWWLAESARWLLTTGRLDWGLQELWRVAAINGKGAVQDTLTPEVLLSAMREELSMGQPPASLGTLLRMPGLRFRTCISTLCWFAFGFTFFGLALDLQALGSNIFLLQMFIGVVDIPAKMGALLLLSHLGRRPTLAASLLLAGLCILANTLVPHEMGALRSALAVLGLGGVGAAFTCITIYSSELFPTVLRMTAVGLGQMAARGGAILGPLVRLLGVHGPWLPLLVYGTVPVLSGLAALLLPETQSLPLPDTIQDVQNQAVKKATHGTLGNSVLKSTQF
Nature of the experiment: ^3H-RDEA3170 URAT1 membrane binding assay. The conditions noted are these: human URAT1 membranes; 10 nM ^3H-RDEA3170. How it is done:
Membranes were prepared from URAT1-transfected cells. […] Cells were lysed with 100 strokes in a dounce homogenizer using a tight-fitting “B” stem. Lysates were transferred to 1.5 ml Eppendorf tubes and centrifuged at 250 rcf for 5 minutes at 2 °C, and supernatants were transferred to fresh tubes and centrifuged again at 18,000 rcf for 20 minutes at 2 °C. The pellets (membrane fractions) were resuspended in 1 ml of ice-cold binding buffer containing protease inhibitors and frozen at −80 °C. Protein was measured using the Bio-Rad protein assay dye reagent concentrate.
To initiate binding, membranes at 2.5 μg total protein were incubated with ^3H-RDEA3170 for 30 minutes at room temperature. […] The plates were then subjected to scintillation counting. All samples were assayed in triplicate.

Experiment [1] addresses T3, r-Y365F rURAT1 point mutant (Rattus norvegicus, UniProt Q3ZAV1, Y365F).
T3 sequence (Q3ZAV1 1-553 Y365F): T1 sequence (Q3ZAV1 1-553 V474M/M481I) with Y365F, M474V, I481M
Nature of the experiment: URAT1 uric acid transport activity assay. Type of experiment: cell-based. The conditions noted are these: for fold increased affinity of r-Y365F compared to rURAT1: from IC50 values.
Description: as §1, §2, §3, §4, §5

[2] abbreviates: r-Y365F, MES pH 5.5, 100 μM 14C-uric acid, read-out: IC50 (uric acid transport).

SMILES strings stand for the structures. Numbering of substitutions follows the chain as printed. Read-outs that look alike come from different tables or passages of the source.

As for `CCc1oc2ccccc2c1C(=O)c1cc(Br)c(O)c(Br)c1` [benzbromarone], the figures for the IC50 (at r-h TM11 URAT1 chimera; in experiment [1]) were 12 ± 0.48 µM and 9.4 ± 1.6 µM, respectively. Also, the “displacement of ^3H-RDEA3170 binding to hURAT1” value (“displacement” below) at human URAT1 was “displace binding of the probe”.

For the molecule `O=C(O)CSc1nnc(Br)n1-c1ccc(C2CC2)c2ccccc12` [lesinurad, 2-((5-bromo-4-(4-cyclopropylnaphthalen-1-yl)-4H-1,2,4-triazol-3-yl)thio)acetic acid], the IC50 – broadly, the concentration that inhibits the measured activity by half – came to 62 ± 3.6 µM on r-h TM11 URAT1 chimera (r-h TM11, MES pH 5.5, 100 μM 14C-uric acid, read-out: IC50 (uric acid transport)) and 15 ± 3 µM in experiment [1] (setting [2]). Also, the “displacement” value at human URAT1 is “displace binding of the probe”.

With `O=C1C(CC[S+]([O-])c2ccccc2)C(=O)N(c2ccccc2)N1c1ccccc1` (stereo not drawn) [sulfinpyrazone], the concentration for half-maximal inhibition (IC50) at r-h TM11 URAT1 chimera (r-h TM11, HEPES pH 7.3, 100 μM 14C-uric acid, read-out: IC50 (uric acid transport)) was 342 ± 32 µM; in experiment [1] (r-Y365F, HEPES pH 7.3, 100 μM 14C-uric acid, read-out: IC50 (uric acid transport)), 255 ± 27 µM. Further, the “displacement” value on human URAT1 is reported as “displace binding of the probe”. The “fold increased affinity of r-Y365F compared to rURAT1” value in experiment [1] worked out at 2.7 fold.

`O=c1[nH]c(=O)c2[nH]c(=O)[nH]c2[nH]1` [uric acid]: the “fold increased affinity of r-Y365F compared to rURAT1” value in experiment [1] came to 1.6 fold. Further, the IC50 in experiment [1] (setting [2]) was 1640 µM.

The values above are taken from paper PMC5054527, “Mechanism of high affinity inhibition of the human urate transporter URAT1” (Scientific Reports, 2016).
